Results published in article PMC11449324, “Functional comparison of human and murine equilibrative nucleobase transporter 1” (PLOS ONE, 2024).

How the values were obtained:
[1] = target: T1, endogenous ENBT1 expressed in MOLT-4 cells (Homo sapiens, UniProt Q8NBI5); experiment: [3H]6-MP uptake in MOLT-4 cells; type: cell-based; conditions: 30 μM [3H]6-MP
T1 construct: MOLT-4 cells express the SLC43A3 transcript and L1210 cells express the slc43a3 transcript; host or cells: MOLT-4
T1 sequence (Q8NBI5 1-491): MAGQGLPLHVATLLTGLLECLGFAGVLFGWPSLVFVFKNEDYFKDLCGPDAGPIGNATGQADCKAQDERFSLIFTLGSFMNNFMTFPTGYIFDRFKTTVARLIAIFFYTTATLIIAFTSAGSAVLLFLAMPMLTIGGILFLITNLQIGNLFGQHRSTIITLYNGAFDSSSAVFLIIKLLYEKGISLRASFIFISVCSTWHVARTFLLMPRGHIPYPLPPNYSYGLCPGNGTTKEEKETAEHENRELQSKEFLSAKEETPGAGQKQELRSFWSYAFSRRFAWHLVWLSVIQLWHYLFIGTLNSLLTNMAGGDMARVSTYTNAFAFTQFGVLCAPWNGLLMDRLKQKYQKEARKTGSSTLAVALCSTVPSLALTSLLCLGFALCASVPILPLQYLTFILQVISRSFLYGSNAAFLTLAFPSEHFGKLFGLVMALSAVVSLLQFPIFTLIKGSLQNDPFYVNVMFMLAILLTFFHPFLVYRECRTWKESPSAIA
Experimental: Harvested cells were suspended in nominally sodium-free N-methyl-D-glucamine (NMG) buffer (140 mM NMG, 5 mM KCl, 4.2 mM KHCO3, 0.36 mM K2HPO4, 0.44 mM KH2PO4, 0.5 mM MgCl2, 1.3 mM CaCl2, 10 mM HEPES, pH 7.4), to minimize potential contribution of sodium-dependent concentrative nucleoside transporter-mediated uptake. Additionally, cells were incubated for 15 minutes at room temperature with 10 μM dipyridamole (DY), an equilibrative nucleoside transporter (ENT) inhibitor, to block equilibrative nucleoside transporter–mediated uptake. The substrate uptake assay was initiated by adding 250 μL cell suspension to 250 μL [^3H] labeled substrate, layered over 21:4 silicone:mineral oil (200 μL) in 1.5 mL microcentrifuge tubes (conducted at room temperature). […] This is the minimum incubation time achievable with this oil-stop technique, and it was found in previous studies that these short incubation times were necessary to assess the kinetics of this transporter. […] The resulting cell pellet was digested in 250 μL 1 M NaOH overnight (~16 hours), with 220 μL aliquots of digested cells assessed for radioactive content using standard liquid scintillation counting techniques in a Beckman Coulter LS6500 scintillation system (Brea, CA).
In transfected-HEK293 cell lines, total uptake was defined as uptake of radiolabeled substrate in cells overexpressing recombinant hENBT1 or mENBT1. […] ENBT1-mediated uptake was calculated as total uptake minus the non-mediated uptake.
Cell water volume (μL) was estimated by incubating cells with ^3H2O for 3 minutes, centrifuging the cells through the oil layer at ~10,000 g, assessing 100 μL of the supernatant for radioactive content, and then processing as described above. Total cellular water volume was determined from the ratio of the decays per minute of the cell pellet, to the decays per minute of the supernatant, allowing for inter-experimental normalization via calculation of picomoles of substrate accumulated per microliter of cell-associated water.

[2] = target: T2, hENBT1 (SLC43A3-encoded human ENBT1) (Homo sapiens, UniProt Q8NBI5); experiment: Radiolabelled substrate uptake (oil-stop, 2 s) in HEK293-hSLC43A3 cells; type: cell-based
T2 construct: Oligonucleotides corresponding to the coding region of SLC43A3 (NM_001278201) or slc43a3 (NM_021398); expressed in transfected cells; HEK293-hSLC43A3
T2 sequence (Q8NBI5 1-491): T1 sequence (Q8NBI5 1-491)
Experimental: Harvested cells were suspended in nominally sodium-free N-methyl-D-glucamine (NMG) buffer (140 mM NMG, 5 mM KCl, 4.2 mM KHCO3, 0.36 mM K2HPO4, 0.44 mM KH2PO4, 0.5 mM MgCl2, 1.3 mM CaCl2, 10 mM HEPES, pH 7.4), to minimize potential contribution of sodium-dependent concentrative nucleoside transporter-mediated uptake. Additionally, cells were incubated for 15 minutes at room temperature with 10 μM dipyridamole (DY), an equilibrative nucleoside transporter (ENT) inhibitor, to block equilibrative nucleoside transporter–mediated uptake. The substrate uptake assay was initiated by adding 250 μL cell suspension to 250 μL [^3H] labeled substrate, layered over 21:4 silicone:mineral oil (200 μL) in 1.5 mL microcentrifuge tubes (conducted at room temperature). The uptake reaction was terminated after 2 seconds by centrifugation of the cells through the oil layer at ~10,000 g. […] The resulting cell pellet was digested in 250 μL 1 M NaOH overnight (~16 hours), with 220 μL aliquots of digested cells assessed for radioactive content using standard liquid scintillation counting techniques in a Beckman Coulter LS6500 scintillation system (Brea, CA).
In transfected-HEK293 cell lines, total uptake was defined as uptake of radiolabeled substrate in cells overexpressing recombinant hENBT1 or mENBT1. […] ENBT1-mediated uptake was calculated as total uptake minus the non-mediated uptake. […]

HEK293-hSLC43A3 cells = experiment: MTT cell viability assay, HEK293-hSLC43A3; type: cell-based, human
Experimental: Transfected-HEK293, MOLT-4, and L1210 cells were seeded into 24-well plates at a density of 1.1x10^5 cells per well in complete culture medium. […] Medium containing no cells was used to determine spontaneous MTT reduction (background). In transfected-HEK293 cells, media was removed via a vacuum-powered aspirator and replaced with 150 μL of Dulbecco’s phosphate buffered saline (DPBS—137 mM NaCl, 2.7 mM KCl, 6.3 mM Na2HPO4, 1.5 mM KH2PO4, 0.5 mM MgCl2, 0.9 mM CaCl2, pH 7.4) containing MTT (1 mg/mL) for 90 minutes at 37°C. In MOLT-4 and L1210, cell suspension was transferred to 1.5 mL microcentrifuge tubes and centrifuged for 10 minutes at 3000 rcf. Following centrifugation, media was removed via gentle pipetting and replaced with 150 μL of DPBS containing MTT (1 mg/mL) for 90 minutes at 37°C. Microcentrifuge tubes were centrifuged again for 15 minutes at 23,500 rcf, and then DPBS containing MTT was removed via a vacuum-powered aspirator. The resultant formazan crystals were solubilized in 500 μL of DMSO and transferred to a 96-well plate in 200 μL duplicates. Absorbance was measured at 570 nm, in a SpectraMax® i3x Multi-Mode Detection Platform (Molecular Devices, San Jose, CA). After background subtraction, % cell viability was calculated as the ratio of absorbance in the presence of test compound to that measured with vehicle alone (X 100).

Row | Compound | effect on uptake of [3H]6-MP ([1]; 5 mM adenine) | k value of time-dependent uptake [1] | uptake plateau [1] | 6-MP Km relative to adenine Km [2] | 6-MP Vmax relative to adenine Vmax [2] | shift in EC50 (increased sensitivity) relative to HEK293-EV cells (HEK293-hSLC43A3 cells; HEK293-hSLC43A3 vs HEK293-EV) | EC50 (HEK293-hSLC43A3 cells; Homo sapiens, HEK293-hSLC43A3, 48 h, MTT, first-phase EC50 where biphasic)
1 | Nc1ncnc2[nH]cnc12 [adenine, Adenine] | significantly inhibited | – | – | – | – | – | –
2 | Sc1ncnc2nc[nH]c12 [6-MP, 6-Mercaptopurine] | – | 0.34 ± 0.09 s⁻¹ | roughly 30 pmol/μL | 3 fold | 3 fold | 19 fold | 990 ± 90 nM
